These results are taken from US12209096B2, “Compounds and compositions for inducing chondrogenesis” (NOVARTIS AG, priority 2017, dated 2025).

The subject of experiment [1] is human chondrogenic progenitor cell (CPCs). The experiment in a line: Collagen type II assay (chondrogenic differentiation). Type of experiment: cell-based. To be noted: 432 h, hCPCs, 18 days; for Emax: read-out: (B) % Efficacy; for EC50: read-out: (B) EC50. The protocol: To initiate chondrogenesis in primary CPCs, 8000 cells were plated/well in a Costar 96 well plate in MSCGM. After 24 hours the MSCGM was removed and replaced with DMEM containing 1% FBS. The test compound was then added to each well at the indicated dose. The cultures were grown at 37° C. for 18 days. A media supplement of an additional 50 μl of DMEM containing 1% FBS was given 10 days after chondrogenic induction.
To detect the presence of Collagen type II, hCPCs were fixed with 10% formalin for 20 minutes, permeablized with PBS containing 0.1% triton X-100, 0.2 mg/ml of Collagenase 2 for 10 minutes, blocked with PBS containing 5% BSA for 1 hr at room temperature, followed by incubation with primary antibody (anti-type II collagen antibody) in PBS containing 1% BSA overnight at 4° C. Cells were washed 3 times with PBS and incubated with fluorophore-conjugated secondary antibody and Hoechst dye for 1 hour at room temperature, followed by washing with PBS for 3 times.
The total intensity of staining was imaged by fluoresecent microscopy and/or quantified by high content imagining with the ImageXpress Micro (Molecular Devices, Sunnyvale, CA). Data analyses were performed with the customized multiwavelength cell-scoring application.

The next experiment has as its system NHACs. In words: calcium flux assay. Format: cell-based, human. To be noted: for Emax: read-out: (A) % Efficacy. The gist of the method: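 Normal human articular chondrocytes plated at 2000 cells/well and loaded 24 h later with Calcium 5 dye in HBSS/HEPES with 5 mM probenecid for 1 h at room temperature. Test compound added at indicated dose; fluorescence (ex 470–495/em 515–575 nm) recorded on FLIPR before and after addition.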
(In general: Calcium flux is commonly read through the fluorescence of an indicator in the cells.)

The subject of the next experiment is C3H10T1/2 cell line. In words: alkaline phosphatase assay in C3H10T1/2. Type of experiment: cell-based. To be noted: alkaline phosphatase assay in C3H10T1/2, 6 days; for Emax: read-out: (D) % Efficacy; for IC50: read-out: (D) IC50. As to the method: To initiate differentiation in C3H10T1/2, Clone 8 (ATCC cat #CCL-226), 4,000 cells were plated/well in 384 Perkin Elmer CellCarrier Ultra plate in DMEM/High glucose (HyClone cat #SH30022.01) containing 10% FBS and 1× Antibiotic/Antimycotic (HyClone cat #SV30079.01). After 24 hours the test compound was then added to each well at the indicated dose. The cultures were grown at 37° C. for 6 days.
To detect the presence of hypertrophic cells, C3H10T1/2 were fixed with 4% paraformaldehyde and Hoeschst dye for 20 minutes, rinsed in PBS, then stained with Fast Blue RR Salt with Naphthol AS-MX Phosphate Alkaline Solution.
The ALP staining was imaged by fluoresecent microscopy, using the 561 wavelength, and/or quantified by high content imagining with the ImageXpress Micro Confocal (Molecular Devices, Sunnyvale, CA). Data analyses were performed with the customized multiwavelength cell-scoring application looking at the number of ALP positive cells per well.

For experiment [2], the system named is normal human articular chondrocytes (NHACs). The experiment in a line: alkaline phosphatase assay in NHAC. Format: cell-based. To be noted: 10 days; for Emax: read-out: (C) % Efficacy; for IC50: read-out: (C) IC50. The protocol: To initiate differentiation in NHACs, 16,000 cells were plated/well in Costar 96 well plate in CGM media (Lonza). After 24 hours the MSCGM was removed and replaced with DMEM containing 1% FBS. The test compound was then added to each well at the indicated dose. The cultures were grown at 37° C. for 10 days.
To detect the presence of hypertrophic cells, NHACs were fixed with 10% formalin and Hoeschst dye for 20 minutes, rinsed in PBS, then stained with Fast Blue RR Salt with Naphthol AS-MX Phosphate Alkaline Solution.
The total intensity of staining was imaged by fluoresecent microscopy, using the 651 wavelength, and/or quantified by high content imagining with the ImageXpress Micro (Molecular Devices, Sunnyvale, CA). Data analyses were performed with the customized multiwavelength cell-scoring application.

Setting [3] is: Mus musculus, C3H 10T1/2, 144 h.
Where [4] appears, read: Homo sapiens, Chondrocyte, 240 h.

Like-named read-outs stand apart in the source and are kept apart here.

As to `Cc1cc([C@H]2[C@H]3O[C@H]([C@@H]4C[C@@H]43)[C@H]2C(=O)Nc2ccc(Cl)c(Cl)c2)ccn1` (single isomer, unassigned) [Example 23a], the Emax in experiment [1] was found to be 29%; in the experiment on NHACs (Homo sapiens), 99%; with C3H10T1/2 cell line (setting [3]) it was 28%; in experiment [2] (setting [4]) it was 100%. Also, the 50% effective concentration (EC50) is 0.78 µM in experiment [1] and 6.1 µM with NHACs (Homo sapiens). In addition, the figures for the IC50 (with C3H10T1/2 cell line (setting [3]); in experiment [2] (setting [4])) were over 20 µM and 30 µM, respectively.
On to `Cc1cc([C@@H]2[C@@H]3O[C@@H]([C@@H](O)[C@H]3O)[C@H]2C(=O)Nc2ccc(Cl)c(Cl)c2)ccn1` (single isomer, unassigned) [Example 157], for which the Emax was determined as 59% in experiment [1], 57% in the experiment with NHACs (Homo sapiens), 15% in the experiment with C3H10T1/2 cell line (setting [3]) and 84% in experiment [2] (setting [4]). The EC50 came out at 2.1 µM in experiment [1] and 29 µM in the experiment with NHACs (Homo sapiens). Besides, the half-inhibitory concentration (IC50) with C3H10T1/2 cell line (setting [3]) was over 20 µM; in experiment [2] (setting [4]) it was 32 µM.
As for `O=C(Nc1ccc(Cl)c(Cl)c1)[C@@H]1[C@@H]2O[C@@H]([C@H]3C[C@H]32)[C@@H]1c1cncnc1` [Example 27], in the experiment with NHACs, the “(A) % Efficacy” value came out at 120% and the concentration giving a half-maximal response (EC50) came to 13 µM. In the experiment on C3H10T1/2 cell line, the “(D) % Efficacy” value stood at 48% and the half-inhibitory concentration (IC50) is over 20 µM. Moreover, in experiment [2], the “(C) % Efficacy” value is recorded as 71% and the IC50 came to 34 µM.
Take `Cc1cc([C@H]2[C@H]3O[C@H]([C@H](O)[C@@H]3O)[C@@H]2C(=O)Nc2ccc(Cl)c(Cl)c2)ccn1` (single isomer, unassigned) [Example 156]: the Emax in experiment [1] turned out to be 99%; in the experiment with NHACs (Homo sapiens) it was 28%; with C3H10T1/2 cell line (setting [3]), 42%; in experiment [2] (setting [4]), 103%. Besides, the results for the 50% effective concentration (EC50) (in experiment [1]; in the experiment with NHACs (Homo sapiens)) were 0.95 µM and 18 µM, respectively. The IC50 in the experiment with C3H10T1/2 cell line (setting [3]) was over 20 µM; in experiment [2] (setting [4]), 15 µM.
As to `O=C(Nc1cccc(C(F)(F)F)c1)[C@H]1[C@@H](c2ccncc2)[C@H]2O[C@@H]1C[C@@H]2O` (single isomer, unassigned) [Example 11a], the Emax is 91% in experiment [1], 98% in the experiment with NHACs (Homo sapiens), 6% in the experiment with C3H10T1/2 cell line (setting [3]) and 65% in experiment [2] (setting [4]). Also, the EC50 in experiment [1] amounted to 2.9 µM; with NHACs (Homo sapiens), 0.27 µM. For the same molecule, the 50% inhibitory concentration (IC50) in the experiment with C3H10T1/2 cell line (setting [3]) is over 20 µM; in experiment [2] (setting [4]) it was 48 µM.
Regarding `O=C(Nc1ccc(Cl)c(Cl)c1)[C@@H]1[C@@H](c2ccnc(F)c2)[C@H]2O[C@@H]1C[C@@H]2O` (single isomer, unassigned) [Example 142a], the Emax worked out at 83% in experiment [1], 68% with NHACs (Homo sapiens), 81% in the experiment on C3H10T1/2 cell line (setting [3]) and 93% in experiment [2] (setting [4]). Also, the EC50 in experiment [1] amounted to 1.2 µM; in the experiment on NHACs (Homo sapiens), 22 µM. Further, the IC50 with C3H10T1/2 cell line (setting [3]) stood at 6.6 µM; in experiment [2] (setting [4]) it was 33 µM.
In the case of `Cc1cc([C@H]2[C@H]3O[C@H](C[C@H]3N3CCOCC3)[C@@H]2C(=O)Nc2ccc(Cl)c(Cl)c2)ccn1` [Example 177, (1R,2R,3S,4R,5R)—N-(3,4-dichlorophenyl)-3-(2-methylpyridin-4-yl)-5-morpholino-7-oxabicyclo[2.2.1]heptane-2-carboxamide], the Emax in experiment [1] was found to be 34%; with NHACs (Homo sapiens), 211%; in the experiment on C3H10T1/2 cell line (setting [3]), 103%; in experiment [2] (setting [4]) it was 33%. In addition, the concentration for a half-maximal effect (EC50) amounted to 1.5 µM in experiment [1] and 22 µM in the experiment on NHACs (Homo sapiens). Further, the 50% inhibitory concentration (IC50) in the experiment with C3H10T1/2 cell line (setting [3]) is 1.5 µM; in experiment [2] (setting [4]) it was over 50 µM.
Regarding `Cc1cc([C@H]2[C@H]3O[C@H](C[C@@H]3O)[C@H]2C(=O)Nc2ccc(Cl)c(Cl)c2)ccn1` (single isomer, unassigned) [Example 53a], the Emax in experiment [1] amounted to 44%; in the experiment on NHACs (Homo sapiens) it was 12%; in the experiment with C3H10T1/2 cell line (setting [3]), 0%; in experiment [2] (setting [4]) it was 83%. Further, the values for the EC50 (in experiment [1]; in the experiment on NHACs (Homo sapiens)) were 13 µM and over 50 µM, respectively. Also, the IC50 is over 20 µM in the experiment on C3H10T1/2 cell line (setting [3]) and 31 µM in experiment [2] (setting [4]).
Consider `O=C(Nc1ccc(Cl)c(Cl)c1)[C@H]1[C@@H](c2ccnc(F)c2)[C@H]2O[C@@H]1C[C@@H]2O` (single isomer, unassigned) [Example 52a], for which the Emax in experiment [1] was determined as 80%; in the experiment with NHACs (Homo sapiens), 96%; in the experiment with C3H10T1/2 cell line (setting [3]), 36%; in experiment [2] (setting [4]), 71%. Moreover, the EC50 in experiment [1] is 0.49 µM; in the experiment with NHACs (Homo sapiens) it was over 50 µM. The 50% inhibitory concentration (IC50) in the experiment on C3H10T1/2 cell line (setting [3]) was over 20 µM; in experiment [2] (setting [4]), 17 µM.
Turning to `Cc1cc([C@H]2[C@H]3O[C@H](C[C@@H]3O)[C@H]2C(=O)Nc2cccc(C(F)(F)F)c2)ccn1` [Example 8, (1R,2S,3S,4R,5S)-5-hydroxy-3-(2-methylpyridin-4-yl)-N-[3-(trifluromethyl)phenyl]-7-oxabicyclo[2.2.1]heptane-2-carboxamide], in the experiment on NHACs (Homo sapiens), the EC50 was over 50 µM and the Emax was determined as 50%. In addition, in the experiment with C3H10T1/2 cell line (setting [3]), the Emax came out at 16% and the IC50 was over 20 µM. In experiment [2] (setting [4]), the Emax is 62% and the concentration for half-maximal inhibition (IC50) was over 31 µM.
Turning to `Cc1cc([C@@H]2[C@@H](C(=O)Nc3ccc(Cl)c(Cl)c3)[C@@H]3O[C@H]2C[C@H]3O)ccn1` (single isomer, unassigned) [Example 77b], in the experiment on NHACs (Homo sapiens), the concentration for a half-maximal effect (EC50) came to 20 µM and the Emax came to 157%. Moreover, in the experiment on C3H10T1/2 cell line (setting [3]), the Emax worked out at 47% and the half-maximal inhibitory concentration (IC50) is over 20 µM.
In the case of `Cc1cc([C@H]2[C@H]3O[C@H](C[C@@H]3F)[C@@H]2C(=O)Nc2ccc(Cl)c(Cl)c2)ccn1` [Example 105, (1R,2R,3S,4R,5S)—N-(3,4-dichlorophenyl)-5-fluoro-3-(2-methylpyridin-4-yl)-7-oxabicyclo[2.2.1]heptane-2-carboxamide], in the experiment with NHACs (Homo sapiens), the EC50 came out at 8.2 µM and the Emax was 106%. Further, in the experiment with C3H10T1/2 cell line (setting [3]), the Emax worked out at 68% and the concentration for half-maximal inhibition (IC50) amounted to 1.7 µM.
Regarding `Cc1cc([C@@H]2[C@@H]3O[C@@H](C[C@@H]3F)[C@H]2C(=O)Nc2ccc(Cl)c(Cl)c2)ccn1` (single isomer, unassigned) [Example 94], in the experiment with NHACs (Homo sapiens), the EC50 came out at 18 µM and the Emax was 157%. For the same molecule, in the experiment on C3H10T1/2 cell line (setting [3]), the Emax was 0% and the IC50 is over 20 µM.
For `O=C(Nc1cnc(Cl)c(Cl)c1)[C@H]1[C@@H]2O[C@@H]([C@H]3C[C@H]32)[C@@H]1c1cncnc1` [Example 75, (1S,2S,4R,5R,6R,7S)—N-(5,6-dichloropyridin-3-yl)-7-(pyrimidin-5-yl)-8-oxatricyclo[3.2.1.0^2,4]octane-6-carboxamide], in the experiment on NHACs (Homo sapiens), the EC50 was found to be 4.4 µM and the Emax amounted to 73%. Moreover, in the experiment on C3H10T1/2 cell line (setting [3]), the Emax turned out to be 45% and the IC50 was over 20 µM.
For `O=C(Nc1cnc(Cl)c(Cl)c1)[C@H]1[C@@H]2O[C@@H]([C@H]3C[C@H]32)[C@@H]1c1ccnc(F)c1F` [Example 124, (1S,2S,4R,5R,6R,7S)—N-(5,6-dichloropyridin-3-yl)-7-(2,3-difluoropyridin-4-yl)-8-oxatricyclo[3.2.1.0^2,4]octane-6-carboxamide] the same measures were 2.8 µM, 160%, 59% and 17 µM.
Turning to `COc1cc([C@@H]2[C@@H]3O[C@@H](C[C@H]3O)[C@H]2C(=O)Nc2ccc(Cl)c(Cl)c2)ccn1` (single isomer, unassigned) [Example 139b], in the experiment with NHACs (Homo sapiens), the EC50 is 26 µM and the Emax turned out to be 141%. For the same molecule, in the experiment on C3H10T1/2 cell line (setting [3]), the Emax was 82% and the IC50 worked out at 7.7 µM.

One may read the EC50 as the concentration giving half of the maximal effect. A word on the IC50: it is the point on the concentration scale where inhibition reaches its midpoint.
